Test results published in ChEMBL document CHEMBL4804281, “STK4 inhibitors for treatment of hematologic malignancies” (2020).
pIC50: −log10 of the molar value.

Tests used:
[1] = biological target: T1, Serine/threonine-protein kinase 4 (Homo sapiens) (UniProt Q13043); assay: Inhibition of STK4 (unknown origin) using fluorescein-labelled Ser/Thr-07 peptide as substrate incubated for 1 hr in presence of ATP at Km concentration by Z-LYTE assay
T1 sequence (whole entry): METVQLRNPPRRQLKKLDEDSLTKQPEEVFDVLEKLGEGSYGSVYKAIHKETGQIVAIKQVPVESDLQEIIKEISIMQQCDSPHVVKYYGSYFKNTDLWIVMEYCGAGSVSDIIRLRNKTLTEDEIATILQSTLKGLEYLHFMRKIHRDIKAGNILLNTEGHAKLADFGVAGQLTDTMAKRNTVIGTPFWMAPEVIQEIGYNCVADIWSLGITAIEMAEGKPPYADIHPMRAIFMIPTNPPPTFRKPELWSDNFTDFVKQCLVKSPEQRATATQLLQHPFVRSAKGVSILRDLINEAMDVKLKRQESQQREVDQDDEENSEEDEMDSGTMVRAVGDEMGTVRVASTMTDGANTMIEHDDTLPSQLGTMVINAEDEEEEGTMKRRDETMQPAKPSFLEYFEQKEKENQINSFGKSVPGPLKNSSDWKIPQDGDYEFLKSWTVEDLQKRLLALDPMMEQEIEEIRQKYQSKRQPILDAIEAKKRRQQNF

[2] = biological target: Calcium/calmodulin-dependent protein kinase type II subunit alpha (Homo sapiens) (UniProt Q9UQM7); assay: Inhibition of CAMK2A in human NCI-H929 cells at 10 uM by mass spectroscopic analysis relative to control; type: cell-based
Sequence of Calcium/calmodulin-dependent protein kinase type II subunit alpha (Homo sapiens) (Q9UQM7 whole entry): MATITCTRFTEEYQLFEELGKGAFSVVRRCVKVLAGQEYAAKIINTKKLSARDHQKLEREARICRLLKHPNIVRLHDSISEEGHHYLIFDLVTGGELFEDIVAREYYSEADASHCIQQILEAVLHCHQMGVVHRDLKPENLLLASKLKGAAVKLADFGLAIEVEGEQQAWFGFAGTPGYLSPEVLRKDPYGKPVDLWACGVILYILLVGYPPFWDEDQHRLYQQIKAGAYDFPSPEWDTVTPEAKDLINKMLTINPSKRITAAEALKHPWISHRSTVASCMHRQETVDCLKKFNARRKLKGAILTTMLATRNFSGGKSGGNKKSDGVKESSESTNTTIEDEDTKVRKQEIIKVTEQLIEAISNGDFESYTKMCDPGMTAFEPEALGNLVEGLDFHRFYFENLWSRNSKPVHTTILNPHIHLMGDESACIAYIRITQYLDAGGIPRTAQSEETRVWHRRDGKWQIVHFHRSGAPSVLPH

[3] = biological target: Tyrosine-protein kinase Fyn (Homo sapiens) (UniProt P06241); assay: Inhibition of FYN in human NCI-H929 cells at 10 uM by mass spectroscopic analysis relative to control; type: cell-based
Sequence of Tyrosine-protein kinase Fyn (Homo sapiens) (P06241 2-537 limits assumed): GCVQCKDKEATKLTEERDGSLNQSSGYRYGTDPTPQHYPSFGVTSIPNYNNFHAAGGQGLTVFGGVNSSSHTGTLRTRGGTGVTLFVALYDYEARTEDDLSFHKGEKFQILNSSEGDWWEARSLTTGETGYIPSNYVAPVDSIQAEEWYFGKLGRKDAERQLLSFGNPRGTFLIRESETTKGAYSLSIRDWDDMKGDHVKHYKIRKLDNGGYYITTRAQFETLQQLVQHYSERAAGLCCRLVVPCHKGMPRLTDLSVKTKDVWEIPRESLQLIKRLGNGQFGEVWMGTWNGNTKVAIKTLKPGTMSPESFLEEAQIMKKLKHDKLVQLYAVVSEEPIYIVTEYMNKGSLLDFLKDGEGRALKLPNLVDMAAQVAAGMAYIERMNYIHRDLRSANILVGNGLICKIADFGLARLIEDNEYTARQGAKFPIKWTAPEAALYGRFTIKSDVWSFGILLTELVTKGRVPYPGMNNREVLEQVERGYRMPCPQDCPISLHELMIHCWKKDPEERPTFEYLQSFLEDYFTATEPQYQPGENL

[4] = biological target: Proto-oncogene tyrosine-protein kinase Src (Homo sapiens) (UniProt P12931); assay: Inhibition of SRC in human NCI-H929 cells at 10 uM by mass spectroscopic analysis relative to control; type: cell-based
Sequence of Proto-oncogene tyrosine-protein kinase Src (Homo sapiens) (P12931 2-536 limits assumed): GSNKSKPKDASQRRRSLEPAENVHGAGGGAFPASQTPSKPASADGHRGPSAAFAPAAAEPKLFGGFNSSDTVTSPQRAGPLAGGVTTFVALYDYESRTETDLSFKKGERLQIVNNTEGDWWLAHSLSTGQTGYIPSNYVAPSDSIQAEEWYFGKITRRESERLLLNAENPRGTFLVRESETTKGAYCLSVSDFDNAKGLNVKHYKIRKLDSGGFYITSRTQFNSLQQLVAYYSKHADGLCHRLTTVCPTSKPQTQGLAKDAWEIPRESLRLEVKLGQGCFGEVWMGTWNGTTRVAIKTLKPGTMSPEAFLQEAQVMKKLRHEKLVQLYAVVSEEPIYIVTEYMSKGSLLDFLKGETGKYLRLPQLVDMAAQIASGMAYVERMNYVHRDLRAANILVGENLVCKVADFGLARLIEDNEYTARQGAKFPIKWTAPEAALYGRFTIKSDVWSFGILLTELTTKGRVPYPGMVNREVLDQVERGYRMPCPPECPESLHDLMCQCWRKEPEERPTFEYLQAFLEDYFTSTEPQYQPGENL

[5] = biological target: Tyrosine-protein kinase Yes (Homo sapiens) (UniProt P07947); assay: Inhibition of YES in human NCI-H929 cells at 10 uM by mass spectroscopic analysis relative to control; type: cell-based
Sequence of Tyrosine-protein kinase Yes (Homo sapiens) (P07947 2-543 limits assumed): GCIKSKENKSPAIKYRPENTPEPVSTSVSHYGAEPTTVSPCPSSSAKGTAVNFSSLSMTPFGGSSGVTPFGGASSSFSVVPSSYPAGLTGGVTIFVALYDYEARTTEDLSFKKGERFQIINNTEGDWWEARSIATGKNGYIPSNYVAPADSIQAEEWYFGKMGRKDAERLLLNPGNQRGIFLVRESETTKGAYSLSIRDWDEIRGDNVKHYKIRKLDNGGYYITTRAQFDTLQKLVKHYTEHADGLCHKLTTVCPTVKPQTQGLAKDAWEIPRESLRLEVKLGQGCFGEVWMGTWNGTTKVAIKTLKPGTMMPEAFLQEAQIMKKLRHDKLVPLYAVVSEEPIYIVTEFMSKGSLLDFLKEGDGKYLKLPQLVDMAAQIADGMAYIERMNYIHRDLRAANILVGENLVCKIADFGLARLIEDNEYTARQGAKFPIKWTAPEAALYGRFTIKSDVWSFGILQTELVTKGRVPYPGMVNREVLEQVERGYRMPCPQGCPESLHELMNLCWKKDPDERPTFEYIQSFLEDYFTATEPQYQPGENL

[6] = biological target: Mitogen-activated protein kinase 9 (Homo sapiens) (UniProt P45984); assay: Inhibition of JNK2 in human NCI-H929 cells at 10 uM by mass spectroscopic analysis relative to control; type: cell-based
Sequence of Mitogen-activated protein kinase 9 (Homo sapiens) (P45984 whole entry, looked up): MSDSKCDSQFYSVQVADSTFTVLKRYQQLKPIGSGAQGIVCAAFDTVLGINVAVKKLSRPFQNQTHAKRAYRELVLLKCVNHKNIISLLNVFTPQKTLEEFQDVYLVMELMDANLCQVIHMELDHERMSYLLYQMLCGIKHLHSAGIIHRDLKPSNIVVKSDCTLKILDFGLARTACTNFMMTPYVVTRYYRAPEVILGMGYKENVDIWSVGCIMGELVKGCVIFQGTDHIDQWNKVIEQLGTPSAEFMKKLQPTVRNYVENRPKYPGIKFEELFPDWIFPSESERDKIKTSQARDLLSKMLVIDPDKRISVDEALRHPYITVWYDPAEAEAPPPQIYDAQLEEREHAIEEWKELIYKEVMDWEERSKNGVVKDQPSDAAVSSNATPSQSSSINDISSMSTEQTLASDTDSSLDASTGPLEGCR

[7] = biological target: T2, Kinase suppressor of Ras 1 (Homo sapiens) (UniProt Q8IVT5); assay: Inhibition of KSR1 in human NCI-H929 cells at 10 uM by mass spectroscopic analysis relative to control; type: cell-based
T2 sequence (whole entry): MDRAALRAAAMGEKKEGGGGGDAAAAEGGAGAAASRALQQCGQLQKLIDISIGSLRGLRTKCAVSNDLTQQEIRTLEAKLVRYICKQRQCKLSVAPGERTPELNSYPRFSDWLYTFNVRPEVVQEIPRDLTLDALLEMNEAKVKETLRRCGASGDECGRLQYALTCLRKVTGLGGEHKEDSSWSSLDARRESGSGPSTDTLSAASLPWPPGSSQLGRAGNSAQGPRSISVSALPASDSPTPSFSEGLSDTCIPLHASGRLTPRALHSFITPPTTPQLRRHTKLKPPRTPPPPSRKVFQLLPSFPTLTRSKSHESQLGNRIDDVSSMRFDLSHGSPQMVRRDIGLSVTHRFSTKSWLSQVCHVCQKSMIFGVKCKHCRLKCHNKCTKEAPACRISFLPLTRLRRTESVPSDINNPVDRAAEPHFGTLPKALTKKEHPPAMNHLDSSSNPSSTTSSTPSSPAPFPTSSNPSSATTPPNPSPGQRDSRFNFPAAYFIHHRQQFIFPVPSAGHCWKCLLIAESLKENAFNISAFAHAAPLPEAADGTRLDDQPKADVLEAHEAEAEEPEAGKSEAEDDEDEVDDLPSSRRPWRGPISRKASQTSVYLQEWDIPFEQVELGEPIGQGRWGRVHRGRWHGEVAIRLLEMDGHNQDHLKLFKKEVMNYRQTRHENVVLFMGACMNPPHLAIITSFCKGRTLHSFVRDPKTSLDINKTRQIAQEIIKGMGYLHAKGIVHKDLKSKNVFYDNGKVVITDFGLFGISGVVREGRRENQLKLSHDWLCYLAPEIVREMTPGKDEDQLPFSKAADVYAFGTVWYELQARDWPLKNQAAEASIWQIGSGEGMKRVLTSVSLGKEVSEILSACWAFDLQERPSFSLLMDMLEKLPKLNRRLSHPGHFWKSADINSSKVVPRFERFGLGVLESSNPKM

[8] = biological target: MAP kinase-activated protein kinase 2 (Homo sapiens) (UniProt P49137); assay: Inhibition of MAPKAPK2 in human NCI-H929 cells at 10 uM by mass spectroscopic analysis relative to control; type: cell-based
[9] = biological target: MAP kinase-activated protein kinase 3 (Homo sapiens) (UniProt Q16644); assay: Inhibition of MAPKAPK3 in human NCI-H929 cells at 10 uM by mass spectroscopic analysis relative to control; type: cell-based
[10] = biological target: T3, Mitogen-activated protein kinase 13 (Homo sapiens) (UniProt O15264); assay: Inhibition of P38delta in human NCI-H929 cells at 10 uM by mass spectroscopic analysis relative to control; type: cell-based
T3 sequence (whole entry): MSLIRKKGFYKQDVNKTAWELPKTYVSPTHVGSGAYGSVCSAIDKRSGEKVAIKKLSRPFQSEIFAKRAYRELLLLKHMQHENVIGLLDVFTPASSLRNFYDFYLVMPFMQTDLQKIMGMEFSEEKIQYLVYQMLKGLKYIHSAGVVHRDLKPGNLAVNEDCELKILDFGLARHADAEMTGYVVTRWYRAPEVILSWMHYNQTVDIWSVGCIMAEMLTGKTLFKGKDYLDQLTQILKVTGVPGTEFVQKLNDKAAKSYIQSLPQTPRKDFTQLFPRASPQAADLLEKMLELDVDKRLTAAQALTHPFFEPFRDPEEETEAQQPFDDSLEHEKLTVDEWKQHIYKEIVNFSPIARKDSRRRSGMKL

[11] = biological target: Phosphatidylinositol 4-kinase alpha (Homo sapiens) (UniProt P42356); assay: Inhibition of PI4KA in human NCI-H929 cells at 10 uM by mass spectroscopic analysis relative to control; type: cell-based
[12] = biological target: Putative phosphatidylinositol 4-kinase alpha-like protein P2 (Homo sapiens) (UniProt A4QPH2); assay: Inhibition of PI4KAP2 in human NCI-H929 cells at 10 uM by mass spectroscopic analysis relative to control; type: cell-based
Sequence of Putative phosphatidylinositol 4-kinase alpha-like protein P2 (Homo sapiens) (A4QPH2 whole entry): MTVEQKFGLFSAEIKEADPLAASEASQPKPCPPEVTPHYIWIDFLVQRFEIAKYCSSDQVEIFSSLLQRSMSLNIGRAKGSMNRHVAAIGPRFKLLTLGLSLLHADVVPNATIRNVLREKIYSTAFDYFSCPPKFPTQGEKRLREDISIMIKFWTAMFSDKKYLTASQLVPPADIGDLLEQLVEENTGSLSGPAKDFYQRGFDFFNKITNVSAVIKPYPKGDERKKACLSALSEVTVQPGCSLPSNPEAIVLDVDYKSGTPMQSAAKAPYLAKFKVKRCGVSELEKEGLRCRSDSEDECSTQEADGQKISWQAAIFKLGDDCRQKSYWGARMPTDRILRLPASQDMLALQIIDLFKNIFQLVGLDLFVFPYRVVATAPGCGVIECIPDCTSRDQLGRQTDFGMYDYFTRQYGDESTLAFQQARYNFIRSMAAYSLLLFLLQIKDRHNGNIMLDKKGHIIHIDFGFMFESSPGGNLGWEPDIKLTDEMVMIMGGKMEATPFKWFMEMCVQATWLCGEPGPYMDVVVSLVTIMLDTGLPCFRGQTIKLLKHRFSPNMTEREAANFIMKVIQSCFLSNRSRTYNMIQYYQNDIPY

[13] = biological target: Serine/threonine-protein kinase WNK3 (Homo sapiens) (UniProt Q9BYP7); assay: Inhibition of WNK3 in human NCI-H929 cells at 10 uM by mass spectroscopic analysis relative to control; type: cell-based
Sequence of Serine/threonine-protein kinase WNK3 (Homo sapiens) (Q9BYP7 whole entry): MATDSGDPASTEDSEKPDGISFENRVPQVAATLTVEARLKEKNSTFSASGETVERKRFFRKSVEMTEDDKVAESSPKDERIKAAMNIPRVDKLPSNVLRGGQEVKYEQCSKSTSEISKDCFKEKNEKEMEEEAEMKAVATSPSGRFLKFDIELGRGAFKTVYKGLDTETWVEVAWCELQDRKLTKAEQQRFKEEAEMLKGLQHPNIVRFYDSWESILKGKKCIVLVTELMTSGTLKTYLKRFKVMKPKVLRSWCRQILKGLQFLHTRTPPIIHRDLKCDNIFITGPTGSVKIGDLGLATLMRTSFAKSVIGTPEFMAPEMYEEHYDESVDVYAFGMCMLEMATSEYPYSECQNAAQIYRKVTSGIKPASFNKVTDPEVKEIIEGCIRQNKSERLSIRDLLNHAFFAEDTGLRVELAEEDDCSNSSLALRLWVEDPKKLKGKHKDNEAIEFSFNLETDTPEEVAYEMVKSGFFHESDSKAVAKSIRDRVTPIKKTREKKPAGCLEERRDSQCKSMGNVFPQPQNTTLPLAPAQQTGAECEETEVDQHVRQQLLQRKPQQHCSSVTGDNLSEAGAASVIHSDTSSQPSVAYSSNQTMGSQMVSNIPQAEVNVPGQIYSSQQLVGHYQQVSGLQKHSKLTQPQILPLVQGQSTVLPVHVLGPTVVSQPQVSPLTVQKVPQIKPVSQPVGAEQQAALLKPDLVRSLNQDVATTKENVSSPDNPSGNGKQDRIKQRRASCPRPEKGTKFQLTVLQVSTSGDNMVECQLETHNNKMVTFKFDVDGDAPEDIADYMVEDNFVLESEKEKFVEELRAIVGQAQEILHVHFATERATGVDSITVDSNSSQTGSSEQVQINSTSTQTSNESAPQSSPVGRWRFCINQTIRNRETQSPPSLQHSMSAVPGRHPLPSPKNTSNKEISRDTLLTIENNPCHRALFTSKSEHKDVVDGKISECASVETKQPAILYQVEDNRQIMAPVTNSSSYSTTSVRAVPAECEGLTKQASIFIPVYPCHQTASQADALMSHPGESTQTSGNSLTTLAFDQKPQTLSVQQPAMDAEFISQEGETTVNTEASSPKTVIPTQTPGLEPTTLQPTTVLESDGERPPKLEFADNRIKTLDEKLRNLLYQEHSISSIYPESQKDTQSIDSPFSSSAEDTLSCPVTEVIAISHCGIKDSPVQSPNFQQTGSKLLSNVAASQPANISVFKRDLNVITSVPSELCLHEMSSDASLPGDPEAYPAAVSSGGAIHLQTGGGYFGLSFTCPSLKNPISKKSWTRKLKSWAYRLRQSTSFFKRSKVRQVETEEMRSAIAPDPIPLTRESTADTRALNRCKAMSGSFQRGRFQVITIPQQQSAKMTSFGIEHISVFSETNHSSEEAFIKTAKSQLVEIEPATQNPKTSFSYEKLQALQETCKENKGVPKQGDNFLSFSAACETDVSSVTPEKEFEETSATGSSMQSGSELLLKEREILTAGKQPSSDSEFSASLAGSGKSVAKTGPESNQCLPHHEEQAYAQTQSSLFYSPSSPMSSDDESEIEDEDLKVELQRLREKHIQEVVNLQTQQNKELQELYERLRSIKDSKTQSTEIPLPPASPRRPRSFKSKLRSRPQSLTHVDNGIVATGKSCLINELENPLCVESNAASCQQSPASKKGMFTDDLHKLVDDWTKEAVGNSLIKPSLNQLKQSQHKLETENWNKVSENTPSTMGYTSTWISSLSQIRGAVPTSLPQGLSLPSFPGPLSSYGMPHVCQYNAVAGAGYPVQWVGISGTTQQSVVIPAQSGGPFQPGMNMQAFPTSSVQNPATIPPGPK

[14] = biological target: Mitogen-activated protein kinase kinase kinase kinase 4 (Homo sapiens) (UniProt O95819); assay: Inhibition of HGK in human NCI-H929 cells at 10 uM by mass spectroscopic analysis relative to control; type: cell-based
[15] = biological target: TRAF2 and NCK-interacting protein kinase (Homo sapiens) (UniProt Q9UKE5); assay: Inhibition of TNIK in human NCI-H929 cells at 10 uM by mass spectroscopic analysis relative to control; type: cell-based

Row | pIC50 [1] | inhibition [2] | inhibition [3] | inhibition [4] | inhibition [5] | inhibition [6] | inhibition [7] | inhibition [8] | inhibition [9] | inhibition [10] | inhibition [11] | inhibition [12] | inhibition [13] | inhibition [14] | inhibition [15] | Compound
1 | > 7.40 | 0% | 0% | 0% | 0% | 0% | 0% | 0% | 0% | 0% | 0% | 0% | 0% | > 90% | 50% | Nc1ncc(-c2ccc(NS(=O)(=O)C3CC3)cc2OC2CCCCC2)cc1-c1ccc2c(c1)CCNC2=O
2 | > 7.40 | 0% | 0% | 0% | 0% | 0% | 0% | 0% | 0% | 0% | 0% | 0% | 0% | > 90% | > 90% | Nc1ncc(-c2cccc3ncsc23)cc1-c1ccc2c(c1)CCNC2=O
3 | > 7.40 | 0% | 0% | 0% | > 90% | 0% | 0% | 0% | 0% | 0% | 0% | 0% | 0% | > 90% | > 90% | COc1cc(NS(=O)(=O)C2CC2)ccc1-c1cnc(N)c(-c2ccc3c(c2)CCNC3=O)c1
4 | > 7.40 | 0% | 0% | 0% | 0% | 0% | 0% | 0% | 0% | 0% | 0% | 0% | 0% | > 90% | > 90% | CN(C1CC1)S(=O)(=O)c1ccc(-c2cnc(N)c(-c3ccc4c(c3)CCNC4=O)c2)c(F)c1
5 | > 7.40 | 0% | 0% | 0% | 0% | 0% | 0% | 0% | 0% | 0% | 0% | 0% | > 100% | > 90% | > 90% | Nc1ncc(-c2cccc([N+](=O)[O-])c2F)cc1-c1ccc2c(c1)CCNC2=O
6 | > 7.40 | 0% | 0% | 0% | 0% | 0% | 0% | 0% | 0% | 0% | 0% | 0% | 0% | > 90% | > 90% | Nc1ncc(-c2ccc(NS(=O)(=O)C3CC3)cc2F)cc1-c1ccc2c(c1)CCNC2=O
